Assay [1] has as its target Leukotriene B4 receptor 1 (Homo sapiens, UniProt Q15722). Briefly: Binding affinity at leukotriene B4 receptor on intact human PMNs by displacement of [3H]LTB4. On the technique in general: In a radioligand displacement assay an active substance lowers the binding of a labelled ligand.
For assay [2], the species on record is Homo sapiens. Description: Concentration of test compound required to inhibit 50% LTB4-induced calcium mobilization in intact human PMNs. Type of assay: functional.
Assay [3] is filed under the species Homo sapiens. Briefly: Concentration of test compound required to inhibit 50% LTB4-induced degranulation of human PMNs. Type of assay: functional.
The species entered for assay [4] is Mus musculus. Briefly: Effective concentration required for inhibition of LTB4-induced (250 ng/mL) PMN infiltration. Type of assay: functional.
Assay [5] is filed under the species Mus musculus. Briefly: Effective concentration required per ear of mouse for inhibition of neutrophil infiltration. Type of assay: functional.
The species entered for assay [6] is Mus musculus. Briefly: Compound was tested for its effect on mouse ear for reduction of PMN infiltration. Type of assay: functional.
The test system of assay [7] is Mus musculus. Description: Effective concentration required per ear of mouse for inhibition of edematous response. Type of assay: functional.

Sequence of Leukotriene B4 receptor 1 (Q15722 whole entry): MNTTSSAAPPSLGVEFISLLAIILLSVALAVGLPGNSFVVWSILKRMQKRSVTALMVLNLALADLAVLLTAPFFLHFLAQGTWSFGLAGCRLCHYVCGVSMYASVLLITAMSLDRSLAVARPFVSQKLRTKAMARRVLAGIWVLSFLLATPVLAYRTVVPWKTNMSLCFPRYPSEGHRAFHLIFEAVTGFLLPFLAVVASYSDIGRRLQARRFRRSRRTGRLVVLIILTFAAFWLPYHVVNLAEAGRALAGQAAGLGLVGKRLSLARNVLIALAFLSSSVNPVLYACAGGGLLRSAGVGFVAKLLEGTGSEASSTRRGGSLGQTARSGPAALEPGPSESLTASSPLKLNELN

Broadly, the Ki is the equilibrium dissociation constant of an inhibitor or competing ligand from its target. A low value points to tighter binding. The term IC50 denotes the concentration needed to halve the response being measured. For the molecule `COc1ccc(CCCCOc2ccc(CSCc3cccc(C(=O)O)c3)nc2/C=C/C(=O)O)cc1`, in assay [1], the inhibitory constant (Ki) was determined as 9.2 nM. For the same molecule, the IC50 in assay [2] and in assay [3] was 770 nM in each case.
Take `COc1ccc(CCCCCCCCOc2ccc(CSCc3cccc(C(=O)O)c3)nc2/C=C/C(=O)O)cc1`: the figures for the ED50 in assay [4], in assay [5] and in assay [7] were 7.1 mg/kg, 0.39 mg and 0.58 mg, respectively. Moreover, in assay [2], the half-inhibitory concentration (IC50) is 131 nM. In assay [6], this molecule showed a Reduction of 92%.
Turning to `COc1ccc(CCCCCCCCOc2ccc(CSCc3cccc(C(=O)O)c3)nc2CCC(=O)O)cc1`, in assay [1], the Ki worked out at 8 nM. The figures for the IC50 in assay [2] and in assay [3] were 240 nM and 190 nM, respectively.
As for `CCCc1c(OCCCOc2ccc(C(=O)NC)c(OC)c2CC2CC2)ccc2c1O[C@H](CCC(=O)O)CC2`, in assay [1], the affinity corresponds to a Ki of 1.3 nM.
For `O=C(O)/C=C/c1nc(CSCc2cccc(C(=O)O)c2)ccc1OCCCCCCCCc1ccccc1`, in assay [1], the Ki was 15.4 nM. Besides, the IC50 in assay [2] was 320 nM; in assay [3] it was 500 nM.
Regarding `COc1ccc(CCCCCCCCOc2ccc(CSc3cccc(C(=O)O)c3)nc2/C=C/C(=O)O)cc1`, the IC50 in assay [2] was 550 nM; in assay [3], 1000 nM.
For the molecule `COc1ccc(CCCCCCCCOc2ccc(CS(=O)(=O)Cc3cccc(C(=O)O)c3)nc2/C=C/C(=O)O)cc1`, the Ki in assay [1] is 53 nM. Further, the values for the IC50 in assay [2] and in assay [3] were 920 nM and 1000 nM, respectively.
`O=C(O)/C=C/c1nc(CSCc2cccc(C(=O)O)c2)ccc1OCCCCc1ccccc1` had an inhibition constant Ki in assay [1] of 4.8 nM. In addition, the 50% inhibitory concentration (IC50) is 500 nM in assay [2] and 1700 nM in assay [3].
As for `COc1ccc(CCCCCCCCOc2ccc(CSCc3ccccc3C(=O)O)nc2/C=C/C(=O)O)cc1`, the inhibition constant (Ki) in assay [1] is 112 nM. For the same molecule, the half-inhibitory concentration (IC50) in assay [2] was found to be 710 nM.
Regarding `COc1ccc(CCCCCCCCOc2ccc(CSCc3ccc(C(=O)O)cc3)nc2/C=C/C(=O)O)cc1`, in assay [1], the Ki was determined as 5.7 nM. Further, the IC50 in assay [2] is 175 nM; in assay [3] it was 426 nM.
In assay [1], `COc1ccc(CCCCCCCCOc2ccc(C[S+]([O-])Cc3ccc(C(=O)O)cc3)nc2/C=C/C(=O)O)cc1` (centres undefined) returned a Ki of 161 nM. Moreover, the IC50 in assay [2] was found to be 7000 nM.
In assay [1], `COc1ccc(CCCCOc2ccc(CSCc3cccc(C(=O)O)c3)nc2CCC(=O)O)cc1` gave a Ki of 28 nM. The IC50 in assay [2] worked out at 1900 nM; in assay [3] it was 3800 nM.
In turn, `COc1ccc(CCCCCCCCOc2ccc(C[S+]([O-])Cc3cccc(C(=O)O)c3)nc2/C=C/C(=O)O)cc1` (centres undefined) gave a Ki in assay [1] of 240 nM. Also, the IC50 in assay [2] came to 3300 nM; in assay [3], 2600 nM.
Consider `COc1ccc(CCCCCCCCOc2ccc(C[S+]([O-])c3cccc(C(=O)O)c3)nc2/C=C/C(=O)O)cc1` (centres undefined), for which the affinity in assay [1], expressed as Ki, was 167 nM. The IC50 is 3900 nM in assay [2] and 3200 nM in assay [3].

Source of the values: ChEMBL document CHEMBL1127355, “(E)-3-[[[[6-(2-carboxyethenyl)-5-[[8-(4- methoxyphenyl)octyl]oxy]-2-pyridinyl]-methyl]thio]methyl]benzoic acid and related compounds: high affinity leukotriene B4 receptor antagonists” (J Med Chem, 1994).
